Test results as given in patent publication US20260042772A1, “FURO PYRIMIDINE DERIVATES” (Merck Patent GmbH, priority 2022, published 2026).

Key:
[1] = system: CQC sensitive strain (NF54) of P. falciparum; test: In vitro antiplasmodial activity, Assay B (as described by Vennerstrom et al. 2004); format: cell-based; conditions: Plasmodium falciparum; NF54, Vennerstrom et al. method
Protocol: Compounds were screened against CQC sensitive strain (NF54) of P. falciparum in vitro as described by Vennerstrom et al. (2004). A full dose-response were performed starting at a concentration of 3000 nM, which is then serially diluted 2-fold in complete medium to give 10 concentrations; with the lowest concentration being approximately 6 nM. The same dilution techniques were used for all samples. References were tested at a starting concentration of 1000 ng/mL. The highest concentration of solvent to which the parasites were exposed has no measurable effect on the parasite viability (data not shown).

[2] = system: chloroquine sensitive (CQS) strain (NF54) of P. falciparum; test: In vitro antiplasmodial activity, Assay A (parasite lactate dehydrogenase assay); format: cell-based; conditions: Plasmodium falciparum
Protocol: Test samples were screened for in vitro antiplasmodial activity against a chloroquine sensitive (CQS) strain (NF54) of the malaria parasite P. falciparum. Continuous in vitro cultures of asexual erythrocyte stages of P. falciparum were maintained using a modified version of the method of Trager and Jensen (1976).1 Quantitative assessment of antiplasmodial activity in vitro was determined via the parasite lactate dehydrogenase assay using a modified method described by Makler (1993). The test samples were tested in triplicate on two separate occasions. Further dilutions were prepared in complete medium on the day of the experiment. Samples were tested as a suspension if not completely dissolved. Chloroquine and artesunate were used as the reference drugs. A full dose-response were performed starting at a concentration of 3000 nM, which is then serially diluted 2-fold in complete medium to give 10 concentrations; with the lowest concentration being approximately 6 nM. The same dilution techniques were used for all samples. References were tested at a starting concentration of 1000 ng/mL. The highest concentration of solvent to which the parasites were exposed has no measurable effect on the parasite viability (data not shown).

| Structure (SMILES) | IC50 [1] [nM] | IC50 [2] [nM] |
| --- | --- | --- |
| C[C@H]1COCCN1C(=O)c1ccc(-c2cc3ncnc(-c4ccnc(C(C)(C)O)c4)c3o2)cc1 [Compound D159, (S)-(4-(4-(2-(2-hydroxypropan-2-yl)pyridin-4-yl)furo[3,2-d]pyrimidin-6-yl)phenyl)(3-methylmorpholino) methanone] | < 15 | 15 to 50 |
| C[C@@H]1COCCN1C(=O)c1ccc(-c2cc3ncnc(-c4ccnc(C(C)(C)O)c4)c3o2)cc1 [Compound D160, (R)-(4-(4-(2-(2-hydroxypropan-2-yl)pyridin-4-yl)furo[3,2-d]pyrimidin-6-yl)phenyl)(3-methylmorpholino) methanone] | < 15 | 15 to 50 |
| CC1CN(C(=O)c2ccc(-c3cc4ncnc(-c5ccnc(C(C)(C)O)c5)c4o3)cc2)CC(C)O1 (stereo not drawn) [Compound D161, (2,6-dimethylmorpholino)(4-(4-(2-(2-hydroxypropan-2-yl)pyridin-4-yl)furo[3,2-d]pyrimidin-6-yl)phenyl)methanone] | < 15 | < 15 |
| CC(C)(O)c1cccc(-c2ncnc3cc(-c4ccc(C(=O)N5C[C@H]6C[C@@H]5CO6)cc4)oc23)c1 [Compound D172, ((1R,4R)-2-oxa-5-azabicyclo[2.2.1]heptan-5-yl)(4-(4-(3-(2-hydroxypropan-2-yl)phenyl)furo[3,2-d]pyrimidin-6-yl)phenyl)methanone] | < 15 | < 15 |
| CC(C)(O)c1cccc(-c2ncnc3cc(-c4ccc(C(=O)N5C[C@@H]6C[C@H]5CO6)cc4)oc23)c1 [Compound D174, ((1S,4S)-2-oxa-5-azabicyclo[2.2.1]heptan-5-yl)(4-(4-(3-(2-hydroxypropan-2-yl)phenyl)furo[3,2-d]pyrimidin-6-yl)phenyl)methanone] | < 15 | < 15 |
| CC(C)(O)c1cc(-c2ncnc3cc(-c4ccc(C(=O)N5C[C@@H]6C[C@H]5CO6)cc4)oc23)ccn1 [Compound D176, ((1S,4S)-2-oxa-5-azabicyclo[2.2.1]heptan-5-yl)(4-(4-(2-(2-hydroxypropan-2-yl)pyridin-4-yl)furo[3,2-d]pyrimidin-6-yl)phenyl)methanone] | < 15 | < 15 |
| CC(C)(O)c1cc(-c2ncnc3cc(-c4ccc(C(=O)N5C[C@H]6C[C@@H]5CO6)cc4)oc23)ccn1 [Compound D177, ((1R,4R)-2-oxa-5-azabicyclo[2.2.1]heptan-5-yl)(4-(4-(2-(2-hydroxypropan-2-yl)pyridin-4-yl)furo[3,2-d]pyrimidin-6-yl)phenyl)methanone] | < 15 | < 15 |
| C[C@H]1CN(C(=O)c2ccc(-c3cc4ncnc(-c5cccc(C(C)(C)O)c5F)c4o3)cc2)CCO1 [Compound D191, (S)-(4-(4-(2-fluoro-3-(2-hydroxypropan-2-yl)phenyl)furo[3,2-d]pyrimidin-6-yl)phenyl)(2-methylmorpholino) methanone] | < 15 | < 15 |
| C[C@@H]1CN(C(=O)c2ccc(-c3cc4ncnc(-c5cccc(C(C)(C)O)c5F)c4o3)cc2)CCO1 [Compound D192, (R)-(4-(4-(2-fluoro-3-(2-hydroxypropan-2-yl)phenyl)furo[3,2-d]pyrimidin-6-yl)phenyl)(2-methylmorpholino) methanone] | < 15 | < 15 |
| C[C@@H]1CN(C(=O)c2ccc(-c3cc4ncnc(-c5cccc(C(C)(C)O)c5F)c4o3)cc2)C[C@@H](C)O1 [Compound D193, ((2R,6R)-2,6-dimethylmorpholino)(4-(4-(2-fluoro-3-(2-hydroxypropan-2-yl)phenyl)furo[3,2-d]pyrimidin-6-yl)phenyl)methanone] | < 15 | < 15 |
| C[C@H]1CN(C(=O)c2ccc(-c3cc4ncnc(-c5cccc(C(C)(C)O)c5F)c4o3)cc2)C[C@H](C)O1 [Compound D194, ((2S,6S)-2,6-dimethylmorpholino)(4-(4-(2-fluoro-3-(2-hydroxypropan-2-yl)phenyl)furo[3,2-d]pyrimidin-6-yl)phenyl)methanone] | < 15 | < 15 |
| C[C@H]1COCCN1C(=O)c1ccc(-c2cc3ncnc(-c4cccc(C(C)(C)O)c4F)c3o2)cc1 [Compound D195, (S)-(4-(4-(2-fluoro-3-(2-hydroxypropan-2-yl)phenyl)furo[3,2-d]pyrimidin-6-yl)phenyl)(3-methylmorpholino) methanone] | < 15 | < 15 |
| C[C@@H]1COCCN1C(=O)c1ccc(-c2cc3ncnc(-c4cccc(C(C)(C)O)c4F)c3o2)cc1 [Compound D196, (R)-(4-(4-(2-fluoro-3-(2-hydroxypropan-2-yl)phenyl)furo[3,2-d]pyrimidin-6-yl)phenyl)(3-methylmorpholino) methanone] | < 15 | < 15 |
| CC(C)(O)c1nccc(-c2ncnc3cc(-c4ccc(C(=O)N5CCOCC5)cc4)oc23)c1F [Compound D207, (4-(4-(3-fluoro-2-(2-hydroxypropan-2-yl)pyridin-4-yl)furo[3,2-d]pyrimidin-6-yl)phenyl)(morpholino) methanone] | < 15 | < 15 |
| CC(C)(O)c1nccc(-c2ncnc3cc(-c4ccc(C(=O)N5C[C@H]6C[C@@H]5CO6)cc4)oc23)c1F [Compound D208, ((1R,4R)-2-oxa-5-azabicyclo[2.2.1]heptan-5-yl)(4-(4-(3-fluoro-2-(2-hydroxypropan-2-yl)pyridin-4-yl)furo[3,2-d]pyrimidin-6-yl)phenyl)methanone] | < 15 | < 15 |
| CS(=O)(=O)c1ccc(-c2cc3ncnc(-c4ccnc(N5CC(O)C5)c4)c3o2)cc1 [Compound P1, 1-(4-(6-(4-(methylsulfonyl)phenyl)furo [3,2-d]pyrimidin-4-yl)pyridin-2-yl)azetidin-3-ol] | > 50 | > 50 |
| C[C@@H]1CN(C(=O)c2ccc(-c3cc4ncnc(-c5ccnc(C(C)(C)O)c5)c4o3)cc2)C[C@H](C)O1 [Compound P17, ((2S,6R)-2,6-dimethylmorpholino)(4-(4-(2-(2-hydroxypropan-2-yl)pyridin-4-yl)furo[3,2-d]pyrimidin-6-yl)phenyl)methanone] | < 15 | > 50 |
| C[C@H]1CN(C(=O)c2ccc(-c3cc4ncnc(-c5ccnc(C(C)(C)O)c5)c4o3)cc2)CCO1 [Compound P18, (S)-(4-(4-(2-(2-hydroxypropan-2-yl)pyridin-4-yl)furo[3,2-d]pyrimidin-6-yl)phenyl)(2-methylmorpholino) methanone] | < 15 | 15 to 50 |
| C[C@@H]1CN(C(=O)c2ccc(-c3cc4ncnc(-c5ccnc(C(C)(C)O)c5)c4o3)cc2)CCO1 [Compound P19, (R)-(4-(4-(2-(2-hydroxypropan-2-yl)pyridin-4-yl)furo[3,2-d]pyrimidin-6-yl)phenyl)(2-methylmorpholino) methanone] | < 15 | < 15 |
| C[C@@H]1CN(C(=O)c2ccc(-c3cc4ncnc(-c5cccc(C(C)(C)O)c5F)c4o3)cc2)C[C@H](C)O1 [Compound P20, ((2S,6R)-2,6-dimethylmorpholino)(4-(4-(2-fluoro-3-(2-hydroxypropan-2-yl)phenyl)furo[3,2-d]pyrimidin-6-yl)phenyl)methanone] | < 15 | < 15 |
| CC(C)(O)c1cccc(-c2ncnc3cc(-c4ccc(C(=O)N5C[C@H]6C[C@@H]5CO6)cc4)oc23)c1F [Compound P21, ((1R,4R)-2-oxa-5-azabicyclo[2.2.1]heptan-5-yl)(4-(4-(2-fluoro-3-(2-hydroxypropan-2-yl)phenyl)furo[3,2-d]pyrimidin-6-yl)phenyl)methanone] | < 15 | < 15 |
| CC(C)(O)c1cc(-c2ncnc3cc(-c4ccc(C5(C(=O)N6C[C@@H]7C[C@H]6CO7)CC5)cc4)oc23)ccn1 [Compound P23, ((1S,4S)-2-oxa-5-azabicyclo[2.2.1]heptan-5-yl)(1-(4-(4-(2-(2-hydroxypropan-2-yl)pyridin-4-yl)furo[3,2-d]pyrimidin-6-yl)phenyl)cyclopropyl) methanone] | > 50 | > 50 |
| CC(C)(O)c1cc(-c2ncnc3cc(-c4ccc(C5(C(=O)N6C[C@H]7C[C@@H]6CO7)CC5)cc4)oc23)ccn1 [Compound P24, ((1R,4R)-2-oxa-5-azabicyclo[2.2.1]heptan-5-yl)(1-(4-(4-(2-(2-hydroxypropan-2-yl)pyridin-4-yl)furo[3,2-d]pyrimidin-6-yl)phenyl)cyclopropyl) methanone] | > 50 | > 50 |
| CC(C)(O)c1cc(-c2ncnc3cc(-c4ccc(C(=O)N5CCOCC5)cc4)oc23)ccc1F [Compound P32, (4-(4-(4-fluoro-3-(2-hydroxypropan-2-yl)phenyl)furo[3,2-d]pyrimidin-6-yl)phenyl)(morpholino) methanone] |  | > 50 |
| CC(C)(O)c1cccc(-c2ncnc3cc(-c4ccc(S(N)(=O)=O)cc4)oc23)c1F [Compound P33, 4-(4-(2-fluoro-3-(2-hydroxypropan-2-yl)phenyl)furo[3,2-d]pyrimidin-6-yl)benzenesulfonamide] |  | 15 to 50 |
